Consider 15 compounds from publication PMC6753678, “Fueling Open Innovation for Malaria Transmission-Blocking Drugs: Hundreds of Molecules Targeting Early Parasite Mosquito Stages” (Frontiers in Microbiology, 2019).

Data set [1] deals with P. berghei ookinete development. The settings on record: for % inhibition, Replicate A / % inhibition, Replicate B: primary screen at 1 μM.
Data set [2] has as its system 3D7-strain P. falciparum asexual parasites. Briefly: P. falciparum asexual growth inhibition assay (Pf GIA). It is filed as cell-based, Plasmodium falciparum. Conditions: dose response confirmation; read-out: Pf asexual growth inhibition assays IC50. The method in brief: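 Read-out was lactate dehydrogenase activity measured by absorbance at 650 nm after freezing and thawing, against 50 μM chloroquine and DMSO controls. Before that, asexual 3D7 cultures (0.25% parasitemia, 2% hematocrit) had 72 h dose-response compound exposure at 37°C in 5% CO2/5% O2/90% N2; three independent replicates averaged.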

In a further data set the test system is HepG2 cells. In words: HepG2 cytotoxicity assay. The settings on record: for Pb ODA (this manuscript) HepG2 cytoxicity: HepG2 cytotoxicity listed with the Pb ODA data set (this manuscript); for IC50: read-out: HepG2 cytotoxicity assay IC50, dose response confirmation; for Unified cytotox: HepG2 values of the three screens unified. In short, it runs like this:
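Cells at 2,500 per well in MEM with 10% fetal bovine serum and 1% NEAA were exposed to test compounds for 48 h at 37°C, 5% CO2. Viability was read by fluorescence, with percent inhibition calculated against 50 μM doxorubicin (positive) and DMSO (negative) controls.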

Where [3] appears, read: read-out: Pb ODA (this manuscript) IC50, P. berghei ookinete development assay, this manuscript.
[4] abbreviates: read-out: Pb Ookinete development assay IC50, dose response confirmation.
[5] abbreviates: read-out: Pb ODA IC50, this manuscript.

Where two headings read alike, the source gives them in different places. Bounds are passed on as bounds.

As for `Br.CC1(C)NC(N)=NC(=N)N1OCCCOc1cc(Cl)ccc1Cl` [TCMDC-131679], in data set [1], the “Is compound selective in assay? Pb ODA active?” value (from here on “Is compound selective”) is recorded as 0 (key: 1: YES; 0: NO); the “% inhibition, Replicate A” value stood at 77.33%; the “% inhibition, Replicate B” value worked out at 60.56%. In addition, the IC50 in data set [1] (setting [3]) is 3390 nM. Also, the IC50 in data set [1] (setting [4]) is 3390 nM. Besides, in data set [2], the IC50 is < 0.2 nM. Moreover, in the data set with HepG2 cells, the “Pb ODA (this manuscript) HepG2 cytoxicity” value was determined as 0.001 µM and the IC50 came out at 1 nM.
Consider `Br.CC(CON1C(N)=NC(N)=NC1(C)C)c1ccc(Cl)cc1Cl` (centres unmarked) [TCMDC-131687], for which the “Is compound selective” value in data set [1] (1: YES, 0: NO) was 0 (0: NO). Further, the “% inhibition, Replicate A” value in data set [1] was 63.61%. Also, the “% inhibition, Replicate B” value in data set [1] came out at 60.22%. Further, the IC50 is 2100 nM in data set [1] (setting [5]), 2100 nM in data set [1] (setting [4]), 39 nM in data set [2] and 1 nM with HepG2 cells. Moreover, the “HepG2 cytoxicity (Pb ODA, this manuscript)” value with HepG2 cells amounted to 0.001 µM. This compound came in with a Unified cytotox in the data set on HepG2 cells of 0.001 µM.
With `CC1(C)N=C(N)N=C(N)N1OCCCc1ccccc1.Cl` [TCMDC-131689], the “Is compound selective” value in data set [1] (1: YES, 0: NO) is reported as 0 (0: NO). In data set [1], the “% inhibition, Replicate A” value stood at 42.43% and the “% inhibition, Replicate B” value is listed as 56.50%. The IC50 in data set [1] (setting [5]) is 2540 nM. The IC50 in data set [1] (setting [4]) is 2540 nM. Besides, the IC50 in data set [2] was < 0.2 nM. In the data set on HepG2 cells, the “HepG2 cytoxicity (Pb ODA, this manuscript)” value is given as 0.001 µM; the Unified cytotox is given as 0.001 µM; the half-maximal inhibitory concentration (IC50) was 1 nM.
As to `Br.COc1ccc(CCCON2C(=N)N=C(N)NC2(C)C)cc1` [TCMDC-131693], in data set [1], the “Is compound selective” value is on record as 0 (key: 1: YES; 0: NO); the “% inhibition, Replicate A” value worked out at 23.91%; the “% inhibition, Replicate B” value was 55.92%. Also, the IC50 in data set [1] (setting [3]) was determined as 5900 nM. For the same compound, the IC50 in data set [1] (setting [4]) was determined as 5900 nM. Moreover, in data set [2], the IC50 is < 0.2 nM. Moreover, in the data set on HepG2 cells, the “Pb ODA (this manuscript) HepG2 cytoxicity” value is recorded as 0.001 µM and the IC50 was 1 nM.
Regarding `Br.CC1(C)NC(N)=NC(=N)N1OCCSc1ccc(Cl)c(Cl)c1` [TCMDC-131704], in data set [1], the “Is compound selective” value is on record as 0 (key: 1: YES; 0: NO); the “% inhibition, Replicate A” value is given as 51.68%; the “% inhibition, Replicate B” value came out at 39.02%. Further, in data set [1] (setting [3]), the IC50 is 8290 nM. The IC50 in data set [1] (setting [4]) came out at 8290 nM. Moreover, the IC50 in data set [2] is < 0.2 nM. Also, in the data set with HepG2 cells, the “Pb ODA (this manuscript) HepG2 cytoxicity” value is on record as 0.001 µM and the IC50 came to 1 nM.
Turning to `Br.CCC(ON1C(N)=NC(N)=NC1(C)C)c1ccc(Cl)cc1` (centres unmarked) [TCMDC-131709], in data set [1], the “Is compound selective” value is listed as 0 (key: 1: YES; 0: NO); the “% inhibition, Replicate A” value worked out at 60.03%; the “% inhibition, Replicate B” value came out at 57.14%. The IC50 in data set [1] (setting [3]) was determined as 3260 nM. In addition, the IC50 in data set [1] (setting [4]) was found to be 3260 nM. For the same compound, in data set [2], the IC50 was 1.55 nM. For the same compound, in the data set on HepG2 cells, the “Pb ODA (this manuscript) HepG2 cytoxicity” value is recorded as 0.00513 µM and the IC50 was 5.13 nM.
As to `Br.CC(CCON1C(N)=NC(N)=NC1(C)C)c1ccc(Cl)cc1` (centres unmarked) [TCMDC-131721], in data set [1], the “Is compound selective” value is given as 0 (key: 1: YES; 0: NO); the “% inhibition, Replicate A” value came to 71.36%; the “% inhibition, Replicate B” value amounted to 33.21%. Moreover, in data set [1] (setting [3]), the IC50 was 9590 nM. Further, in data set [1] (setting [4]), the IC50 amounted to 9590 nM. In addition, in data set [2], the IC50 is < 0.2 nM. In the data set on HepG2 cells, the “Pb ODA (this manuscript) HepG2 cytoxicity” value is 0.001 µM and the IC50 was 1 nM.
For the compound `Br.COc1ccc(CC(C)CON2C(N)=NC(N)=NC2(C)C)cc1` (centres unmarked) [TCMDC-131722], in data set [1], the “Is compound selective” value is recorded as 0 (key: 1: YES; 0: NO); the “% inhibition, Replicate A” value is given as 50.32%; the “% inhibition, Replicate B” value came to 49.29%. The concentration for half-maximal inhibition (IC50) in data set [1] (setting [3]) stood at 4860 nM. Moreover, the IC50 in data set [1] (setting [4]) is 4860 nM. In addition, the IC50 in data set [2] is < 0.2 nM. In addition, in the data set on HepG2 cells, the “Pb ODA (this manuscript) HepG2 cytoxicity” value was 0.001 µM and the IC50 worked out at 1 nM.
Regarding `CC1(C)NC(N)=NC(=N)N1OCOc1ccc(Cl)cc1.Cl` [TCMDC-131734], the “Is compound selective” value in data set [1] was 0 (key: 1: YES; 0: NO). The “% inhibition, Replicate A” value in data set [1] amounted to 89.86%. Besides, in data set [1], the “% inhibition, Replicate B” value was 40.05%. The IC50 in data set [1] (setting [3]) was 2620 nM; in data set [1] (setting [4]), 2620 nM; in data set [2], < 0.2 nM; in the data set on HepG2 cells, 75.9 nM. The “Pb ODA (this manuscript) HepG2 cytoxicity” value in the data set on HepG2 cells was 0.0759 µM.
`Br.CC1(C)NC(N)=NC(=N)N1OCCCOc1ccccc1Cl` [TCMDC-131739]: the “Is compound selective” value in data set [1] is recorded as 0 (key: 1: YES; 0: NO). The “% inhibition, Replicate A” value in data set [1] turned out to be 73.15%. Besides, in data set [1], the “% inhibition, Replicate B” value was 48.60%. For the same compound, the IC50 in data set [1] (setting [3]) was 3130 nM; in data set [1] (setting [4]), 3130 nM; in data set [2], < 0.2 nM; with HepG2 cells, 1 nM. For the same compound, the “Pb ODA (this manuscript) HepG2 cytoxicity” value in the data set on HepG2 cells is on record as 0.001 µM.
As to `CCOC(=O)NC1=NC(=N)N(OCCCOc2cc(Cl)c(Cl)cc2Cl)C(C)(C)N1` [TCMDC-131741], the “Is compound selective” value in data set [1] is reported as 0 (key: 1: YES; 0: NO). Also, the “% inhibition, Replicate A” value in data set [1] stood at 60.63%. Besides, in data set [1], the “% inhibition, Replicate B” value worked out at 47.57%. Besides, the IC50 is 5080 nM in data set [1] (setting [3]), 5080 nM in data set [1] (setting [4]), < 0.2 nM in data set [2] and 1 nM with HepG2 cells. Further, in the data set on HepG2 cells, the “Pb ODA (this manuscript) HepG2 cytoxicity” value was 0.001 µM.
`Br.CC(C)(C)c1ccccc1OCCCON1C(=N)N=C(N)NC1(C)C` [TCMDC-131751]: in data set [1], the “Is compound selective” value is on record as 0 (key: 1: YES; 0: NO); the “% inhibition, Replicate A” value was 62.16%; the “% inhibition, Replicate B” value amounted to 60.88%. Besides, the IC50 in data set [1] (setting [3]) was determined as 3070 nM. Besides, the IC50 in data set [1] (setting [4]) worked out at 3070 nM. Besides, the IC50 in data set [2] was < 0.2 nM. Besides, in the data set on HepG2 cells, the “Pb ODA (this manuscript) HepG2 cytoxicity” value was 0.001 µM and the half-inhibitory concentration (IC50) was determined as 1 nM.
`Br.CC1(C)NC(N)=NC(=N)N1OCCCOc1cccc(Cl)c1` [TCMDC-131762]: the “Is compound selective” value in data set [1] is 0 (key: 1: YES; 0: NO). In data set [1], the “% inhibition, Replicate A” value turned out to be 47.79%. The “% inhibition, Replicate B” value in data set [1] was 53.67%. The IC50 in data set [1] (setting [3]) was 2100 nM; in data set [1] (setting [4]), 2100 nM; in data set [2] it was < 0.2 nM; in the data set with HepG2 cells, 1 nM. In addition, the “Pb ODA (this manuscript) HepG2 cytoxicity” value in the data set on HepG2 cells is reported as 0.001 µM.
With `CC[C@H]1CN2CCc3cc(OC)c(OC)cc3[C@@H]2C[C@@H]1C[C@H]1NCCc2c1cc(OC)c(O)c2Cl` [TCMDC-131802], in data set [1], the “Is compound selective” value is 1 (key: 1: YES; 0: NO); the “% inhibition, Replicate A” value is 61.67%; the “% inhibition, Replicate B” value is 93.54%. The IC50 in data set [1] (setting [3]) is 270 nM. Moreover, in data set [1] (setting [4]), the IC50 came to 268 nM. In data set [2], the IC50 came out at 156 nM. In addition, in the data set with HepG2 cells, the “Pb ODA (this manuscript) HepG2 cytoxicity” value is reported as 4.52 µM and the IC50 is 4520 nM.
As to `Br.CC[C@H]1CN2CCc3cc(OC)c(OC)cc3[C@@H]2C[C@@H]1C[C@H]1NCCc2c1cc(OC)c(O)c2I` [TCMDC-131829], in data set [1], the “Is compound selective” value is on record as 1 (key: 1: YES; 0: NO); the “% inhibition, Replicate A” value was 45.92%; the “% inhibition, Replicate B” value amounted to 90.22%. In addition, the IC50 in data set [1] (setting [3]) came out at 410 nM. Moreover, the IC50 in data set [1] (setting [4]) turned out to be 412 nM. Besides, the IC50 in data set [2] was 98 nM. In the data set with HepG2 cells, the “Pb ODA (this manuscript) HepG2 cytoxicity” value is 5.43 µM and the concentration for half-maximal inhibition (IC50) is 5430 nM.

As usually defined, the IC50 is the concentration needed to halve the response being measured.
